In patent publication US20080318958A1, “New utilities of tricyclic compounds” (priority 2001, published 2008):

Test system: promoter region of the gene encoding human apoAI
Assay: Activity to enhance the expression of human apoAI: apoAI promoter-firefly luciferase reporter in stably transfected HepG2 cells
Format: cell-based
Settings: concentration that intensified the luciferase activity twice compared to DMSO control, 24 hours incubation with compound, read-out: MED (minimal effective dose)
Method: The promoter region of the gene encoding human apoAI was isolated, and ligated upstream the structure gene of firefly luciferase to construct a reporter plasmid. The reporter plasmid and a marker plasmid conferring the neomycin resistance were co-infected to cell lines derived from human hepatoma, HepG2 cells, and the cell lines were incubated in a selection medium comprising DMEM medium containing 10% fetal calf serum supplemented with G418 (Final concentration: 0.7 mg/mL, Gibco) to give established strains that stably expressed the reporter molecule. The strains were seeded to a 96-well culture plates at a density of 50,000 cells per well, and incubated for 48 hours at 37° C. under an atmosphere of 5% carbon dioxide. Then, a solution of the compounds according to the invention in DMSO was added to the wells at final concentrations of 0 to 10 μg/mL. After further incubation for 24 hours, the cells were added with a luciferase assay reagent (Piccagene LT 7.5 registered trade mark, Toyo Ink, KK), and the luciferase activity was determined using a luminometer (MicroBeta™ TRILUX, 1 sec/well, Wallac). The concentration of the compounds, which intensified the luciferase activity twice compared to that of control (DMSO without any compound of the invention added) was set as the minimal effective dose (MED).

Structure (SMILES)	EC (2-fold luciferase activity)
c1ccc(-c2ccc(-c3ccncn3)cc2)cc1 [Compound I-1]	0.63 µM
c1ccc(-c2cnc(-c3ccccc3)nc2)cc1 [Compound I-2]	0.2 µM
c1ccc(-c2cncc(-c3ccccc3)n2)cc1 [Compound I-6]	3.11 µM
c1ccc(-c2ccc(-c3ccccc3)nn2)cc1 [Compound I-7]	0.04 µM
c1ccc(-c2ccc(-c3ncccn3)cc2)cc1 [Compound I-8]	0.09 µM
c1ccc(-c2ccc(-c3cnccn3)cc2)cc1 [Compound I-10]	0.71 µM
c1ccc(-c2ccc(-c3ccccc3)nc2)cc1 [Compound I-11]	0.21 µM
c1ccc(-c2ccc(-c3cnc4ccccc4n3)cc2)cc1 [Compound I-16]	0.1 µM
c1ccc(-c2ccc(-c3ccc4ccccc4n3)cc2)cc1 [Compound I-17]	0.33 µM
Cc1cc(-c2ccc(-c3ccccc3)cc2)nc2ccccc12 [Compound I-18]	1.1 µM
c1ccc(-c2ccc(-c3ccccn3)cc2)cc1 [Compound I-20]	0.23 µM
Cc1cccc(-c2ccc(-c3ccccc3)cc2)n1 [Compound I-21]	2.3 µM
COc1cccc(-c2ccc(-c3ccccc3)cc2)n1 [Compound I-22]	0.84 µM
CCc1cnc(-c2ccc(-c3ccccc3)cc2)nc1 [Compound I-23]	0.27 µM
COc1cc(OC)nc(-c2ccc(-c3ccccc3)cc2)n1 [Compound I-24]	2.2 µM
c1ccc(-c2ccc(-c3cccnn3)cc2)cc1 [Compound I-25]	0.29 µM
Clc1ccc(-c2ccc(-c3ccccc3)cc2)nn1 [Compound I-26]	0.27 µM
COc1ccc(-c2ccc(-c3ccccc3)cc2)nn1 [Compound I-27, 3-(4-Biphenyl)-6-methoxypyridazin]	0.06 µM
c1ccc(-c2ccc(-c3ccc(-c4ccccc4)nn3)cc2)cc1 [Compound I-28]	2.5 µM
COc1nc(OC)nc(-c2ccc(-c3ccccc3)cc2)n1 [Compound I-29]	2.5 µM
COc1cccc(-c2cnc(-c3cccc(OC)c3)cn2)c1 [Compound I-35]	0.29 µM
c1ccc(-c2ccc(-c3ccsc3)cc2)nc1 [Compound I-36, 2-[4-(3-Thienyl)phenyl]pyridine]	1.3 µM
c1ccc(-c2ccc(-c3ccoc3)cc2)nc1 [Compound I-37]	4.4 µM
COc1ccc(-c2ccc(-c3ccccn3)cc2)cc1 [Compound I-40]	0.16 µM
Cc1ccc(-c2ccc(-c3ccccn3)cc2)cc1 [Compound I-42]	0.09 µM
CC(=O)Nc1ccc(-c2ccc(-c3ccccn3)cc2)cc1 [Compound I-43]	0.3 µM
C#CC1COc2ccc(-c3c(OC)cc(-c4ccc(O)cc4)c(OC)c3O)cc2O1 (stereo not drawn) [Compound I-44]	0.6 µM
COc1cc(-c2ccc(O)cc2)c(OC)c(O)c1-c1ccc2c(c1)OC(O)CO2 (stereo not drawn) [Compound I-45]	2.4 µM
COc1cc(-c2ccc(O)cc2)c(OC)c(O)c1-c1ccc(OC/C=N/C2CCN(C)CC2)c(O)c1 [Compound I-48]	1.6 µM

Test system: not given
Assay: not given
Settings: not given

melting point	Structure (SMILES)
66 to 69 °C	c1ccc(-c2ccnc(-c3ccccc3)n2)cc1 [Compound I-4]
91 to 92 °C	c1ccc(-c2cc(-c3ccccc3)ncn2)cc1 [Compound I-5]
88.5 to 90 °C	c1ccc(-c2cncc(-c3ccccc3)n2)cc1 [Compound I-6]
218 to 220 °C	c1ccc(-c2ccc(-c3ccccc3)nn2)cc1 [Compound I-7]
112 to 113 °C	c1ccc(-c2ccc(-c3ncccn3)cc2)cc1 [Compound I-8]
46 to 48 °C	c1ccc(-c2cccc(-c3ncccn3)c2)cc1 [Compound I-9]
177 to 178 °C	c1ccc(-c2ccc(-c3cnccn3)cc2)cc1 [Compound I-10]
176 to 177 °C	c1ccc(-c2ccc(-c3ccccc3)nc2)cc1 [Compound I-11]
203 to 205 °C	c1ccc(-c2nnc(-c3ccccc3)c3ccccc23)cc1 [Compound I-12]
175 to 177 °C	COc1ccc(-c2nnc(-c3ccccc3)c3ccccc23)cc1 [Compound I-13]
